This note sets out measurements from US7271198B2, “Method of treating autoimmune diseases” (Wake Forest University, priority 2000, dated 2007).

“And” between values parts separate entries of the source, which are not always exact repeats. Identical values can stand only once.

The test system of one test is IL-10 protein. Kind of test: IL-10 protein production by SLE T cells (ELISA). In kind it is cell-based, human. Here is the method:
(§1) To determine whether TSA could down-regulate IL-10, a dose-response analysis was performed. […] However, when SLE T cells were cultured in the presence of TSA for 18 hr, no detectable IL-10 transcripts were identified (FIG. 2C, lanes 3, 6, 9). When IL-10 transcripts from all eight SLE subjects were quantified relative to GAPDH transcripts, TSA inhibited expression of IL-10 mRNA by 71% (FIG. 2D; P=0.029). […] IL-10 and IFN-γ protein production were quantified by ELISA (R & D Systems, Minneapolis, Minn.). […] Thus, like CD154, TSA was able to block expression of IL-10 transcript, abolishing IL-10 production by SLE T cells.
On the technique in general: ELISA stands for enzyme-linked immunosorbent assay.

A further test concerns IFN-γ protein. Kind of test: IFN-γ protein production by SLE T cells (ELISA). Type of test: cell-based, human. The settings on record: SLE T cells activated with PMA+IO 24 hr in presence of TSA; P=0.011. Here is the method:
as §1
When T cells were activated with PMA+IO for 24 hr, IFN-γ production increased about 24-fold. However, activation of T cells in the presence of TSA further enhanced IFN-γ output by >12-fold (P=0.011) (FIG. 3C).

In another test the test system is TGF-β1 protein. Kind of test: TGF-β1 protein secretion by PBMCs. Type of test: cell-based, human. Here is the method: Gene expression of TGF-β1 was tested to determine if the gene expression is suppressed by deacetylation of histones in SLE. In this determination, SLE PBMCs or isolated T cells were treated with the histone deacetylase inhibitors (HDIs), TSA or SAHA, for 18hr. […] Subsequently, semi-quantitative PCR was performed to determine the amounts of […] transcripts in SLE and control T cells treated with vehicle or TSA (1000 ng/ml). […] There is no change in GAPDH transcript in normal and SLE T cells after treatment of HDIs. Increased TGF-β1 transcript was associated with a subsequent increase in TGF-β1 protein secretion by SLE PBMCs. When compared to vehicle treated PBMCs, total TGF-β1 protein in culture supernatants from SLE PBMCs increased by approximately 30%. In contrast, there was no increase in total TGF-β1 secretion in TSA treated cells in normal healthy controls. Similar results may be obtained by SAHA.

In a further test the test system is SP1 binding. Kind of test: SP1 binding at TGF-β1 promoter. The note with it: after treatment with TSA. In kind it is cell-based, human. The text has this: Exposure of SLE PBMCs to TSA and SAHA yielded an eight-fold increase in TGF-β1 transcript and a 30% rise in the synthesis of TGF-β1 protein. This enhanced transcriptional activation was temporally associated with increased acetylation of both H3 and H4 nucleosomal histones. […] The increase in total acetylated histones was not global; neither GAPDH nor G6PD genes were transcriptionally activated. […] Thus, the capacity of HDIs to increase the endogenous synthesis of TGF-β1 raises the possibility that these inhibitors could be therapeutic candidates for the treatment of SLE, atherosclerosis, and osteoporosis in addition to cancers.

A further test concerns IL-12 p40 protein. The test is described as follows: IL-12 p40 protein secretion by MRL/lpr splenocytes. Type of test: cell-based, mouse. The note with it: splenocytes stimulated with LPS and IFN-γ 24 hr; stimulated control 45.3±9.1; p=0.003. The protocol:
When splenocytes were activated with LPS (100 μg/ml) and IFN-γ 100U/ml) for 24 hr the mean (±SEM) IL-12 p40 secretion was 45.3±9.1 pg/ml.

Another test relates to IL-6 mRNA. Kind of test: IL-6 mRNA in MRL/lpr splenocytes. Type of test: cell-based, mouse. The protocol: In determining whether TSA or SAHA down-regulate IL-6 mRNA content, splenocytes from 24-wk MRL/lpr mice were treated with increasing concentrations of TSA for 18 hr. […] TSA decreased IL-6 transcript at a concentration of 100 ng/ml and exerted maximal inhibition at 300 ng/ml. To address whether TSA and SAHA down-regulate LPS- and IFN-γ induced IL-6 transcript levels, splenocytes from younger MRL/lpr mice were treated in the absence or presence of TSA or SAHA for 18 hr before LPS and IFN-γ stimulation for 6 or 18 hr. […] Next, the effect of TSA and SAHA on IL-6 protein secretion in stimulated splenocytes was measured (FIG. 10D). When splenocytes were cultured with LPS and IFN-γ for 72 hr, there was a mean (±SEM) 34.4±7.6 pg/ml of IL-6 protein secretion.

The test system of the next test is MRL/lpr mice. Kind of test: In vivo TSA in 26 week old MRL/lpr mice (5 mg/kg s.c. daily), proteinuria. The arrangement: species or system mouse. The text has this:
The effect of TSA on proteinuria and nitric oxide secretion and increased survival in 26 week old MRL/lpr mice was examined. In this age group, MRL/lpr mice developed full-blown disease with evidence of proliferative immune-complex-mediated glomerulo-nephritis, vasculitis, arthritis, and massive lymphadenopathy. Most of the mice expired by the age of 30 weeks. […] Urine was collected for a 24 hr time period on days 0, 7 and 14, and measured for protein and nitric oxide. Toxicity of TSA is being assessed by monitoring body weight, infection, abnormal behavior and survival of treated mice.

[1] abbreviates: splenocytes from 24-wk MRL/lpr mice, 18 hr.

Regarding `CC(/C=C/C(=O)NO)=C\[C@@H](C)C(=O)c1ccc(N(C)C)cc1` [TSA, Trichostatin A], in the test on IL-10 protein (SLE T cells, at 24 hr), the “inhibition of IL-10 synthesis” value is on record as “complete inhibition”. In addition, the “inhibition of IL-10 production” value in the test on IL-10 protein (SLE T cells, within 6 hr) is 90%. Besides, the “TSA concentration of maximal inhibition of IL-10 protein production” value in the test on IL-10 protein (T cells from eight SLE subjects, 18 hr) was 300 ng/mL. In addition, the “further enhancement of IFN-γ output” value with IFN-γ protein is over 12 fold. In addition, the “rise in the synthesis of TGF-β1 protein” value in the test on TGF-β1 protein (SLE PBMCs exposed to TSA and SAHA (summary statement)) is listed as 30%. In the test on TGF-β1 protein (SLE PBMCs, compared to vehicle treated PBMCs), the “increase of total TGF-β1 protein in culture supernatants” value is given as “approximately 30%”. Moreover, the “total TGF-β1 secretion” value in the test with TGF-β1 protein (TSA treated cells of normal healthy controls) is “no increase”. Also, the “SP1 binding after localized acetylation of the TGF-β1 promoter” value in the test on SP1 binding was “not associated with a concomitant increase”. In addition, the “IL-12 p40 secretion (mean±SEM)” value in the test on IL-12 p40 protein is 1.5 ± 1.4 pg/mL. In the test on IL-6 mRNA (setting [1]), the “TSA concentration of maximal inhibition of IL-6 transcript” value is 300 ng/mL and the “TSA concentration that decreased IL-6 transcript” value came out at 100 ng/mL. Besides, the “LPS- and IFN-γ induced IL-6 mRNA” value with IL-6 mRNA (splenocytes from younger MRL/lpr mice pretreated 18 hr, stimulated 6 or 18 hr) is listed as “no detectable IL-6 mRNA”. Besides, the “proteinuria in day 7 and day 14 compared to day 0” value in the test with MRL/lpr mice (26 week old MRL/lpr mice, 5 mg/kg TSA s.c. daily, in comparison to vehicle) is “less proteinuria”. Also, the “Proteinuria, DAY 0” value in the test with MRL/lpr mice (individual 26 week old MRL/lpr mice of TSA group, day 0 (baseline), 24 hr urine) was 964 µg/day and 10 µg/day and 16689 µg/day and 213 µg/day and 14420 µg/day and 107 µg/day and 5 µg/day. For the same compound, in the test on MRL/lpr mice (individual 26 week old MRL/lpr mice, 5 mg/kg TSA s.c. daily, day 7, 24 hr urine, 5 mg/kg), the “Proteinuria, DAY 7” value is 340 µg/day and 4.6 µg/day and 274 µg/day and 54 µg/day and 4701 µg/day and 80 µg/day and 9 µg/day. For the same compound, in the test on MRL/lpr mice (individual 26 week old MRL/lpr mice, 5 mg/kg TSA s.c. daily, day 14, 24 hr urine, 5 mg/kg), the “Proteinuria, DAY 14” value was 242 µg/day and 4.3 µg/day and 865 µg/day and 82 µg/day and 3081 µg/day and 25 µg/day and 10 µg/day.
